The results in this text go back to ChEMBL document CHEMBL1201862, “PubChem BioAssay data set” (2004).

The target in one assay is Large T antigen (Simian virus 40, UniProt P03070). In kind it is functional, Betapolyomavirus macacae.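 Note: Confirmatory-stage PubChem screen for compounds that inhibit SV40 T antigen.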
The target of a further assay is ORF 73 (Human herpesvirus 8, UniProt O40947). As to the kind of experiment: inhibitors of C-LANA binding to LBS DNA, dose response, biochemical, fluorescence polarization, cherry-picked samples (AID 504725).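 Note: fluorescence polarization of a labeled DNA duplex reporting LANA DNA binding; potency is for inhibitors that block LANA binding to the DNA.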 Also on record: species or system Human gammaherpesvirus 8. For orientation: Polarisation of emitted light reports the rotation of a fluorescent probe.
For assay [1], the target named is Intestinal-type alkaline phosphatase (Homo sapiens, UniProt P09923). The experiment in a line: activation of human intestinal alkaline phosphatase – biochemical, dose response (AID 488873). In kind it is functional.
The target in assay [2] is Intestinal-type alkaline phosphatase (Mus musculus, UniProt P24822). The experiment in a line: mouse intestinal alkaline phosphatase activators, dose response, biochemical, luminescence, uHTS hits (AID 488783). In kind it is functional.
Assay [3] addresses T1, Alkaline phosphatase, tissue-nonspecific isozyme (Homo sapiens, UniProt P05186).
T1 sequence (P05186 whole entry): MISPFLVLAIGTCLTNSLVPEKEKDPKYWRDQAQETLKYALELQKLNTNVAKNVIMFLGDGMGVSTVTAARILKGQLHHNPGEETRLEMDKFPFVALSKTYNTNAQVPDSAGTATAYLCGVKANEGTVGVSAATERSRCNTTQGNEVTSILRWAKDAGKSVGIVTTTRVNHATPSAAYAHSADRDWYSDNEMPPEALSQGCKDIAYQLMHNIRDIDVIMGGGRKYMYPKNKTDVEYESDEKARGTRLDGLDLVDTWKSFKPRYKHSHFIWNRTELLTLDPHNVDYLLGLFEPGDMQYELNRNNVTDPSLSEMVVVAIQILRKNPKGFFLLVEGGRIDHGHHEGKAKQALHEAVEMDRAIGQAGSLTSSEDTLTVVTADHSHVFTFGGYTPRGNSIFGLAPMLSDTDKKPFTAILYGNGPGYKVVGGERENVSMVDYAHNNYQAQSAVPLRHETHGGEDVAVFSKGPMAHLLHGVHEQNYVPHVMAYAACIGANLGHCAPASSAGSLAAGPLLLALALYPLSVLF
As to the kind of experiment: TNAP enzyme activators, dose response, selectivity assay for mouse IAP activator project, biochemical, TNAP isozyme, mouse IAP uHTS hits (AID 488880). Format: functional.

The next assay concerns the target T2, Cysteine protease ATG4B (Homo sapiens, UniProt Q9Y4P1).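 Note: Fluorescence-based dose-response confirmation assay measuring inhibition of ATG4B activity.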
T2 sequence (Q9Y4P1 whole entry): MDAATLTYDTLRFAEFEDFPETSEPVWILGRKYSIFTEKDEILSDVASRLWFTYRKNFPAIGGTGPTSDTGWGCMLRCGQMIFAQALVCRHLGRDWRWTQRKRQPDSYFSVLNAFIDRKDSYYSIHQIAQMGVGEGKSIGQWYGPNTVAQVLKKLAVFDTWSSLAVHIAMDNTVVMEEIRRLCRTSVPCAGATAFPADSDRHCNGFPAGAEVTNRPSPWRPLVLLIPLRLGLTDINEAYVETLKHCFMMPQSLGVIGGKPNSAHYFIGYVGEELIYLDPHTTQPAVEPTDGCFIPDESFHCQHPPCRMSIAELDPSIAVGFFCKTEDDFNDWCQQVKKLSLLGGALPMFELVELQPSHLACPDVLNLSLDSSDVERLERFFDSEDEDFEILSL
Format: functional.

Another assay deals with Phospholipase A2 (Homo sapiens, UniProt P04054). Format: functional.
For a further assay, the system named is Vero. As to the kind of experiment: Vero cell cytotoxicity, cytotoxicity control for flavivirus capping enzyme inhibitors (AID 588742). Format: functional. The settings on record: Chlorocebus sabaeus.
In the next assay the target is Genome polyprotein (dengue virus type 2, UniProt P29990). The experiment in a line: Dengue-2 NS5 methyltransferase inhibitors, primary screen, biochemical, confirmation dose response (AID 588689). In kind it is functional.
Assay [4] addresses 26S proteasome non-ATPase regulatory subunit 14 (Homo sapiens, UniProt O00487). As to the kind of experiment: inhibition of proteasome subunit RPN11 – biochemical, fluorescence polarization, uHTS hits, confirmation (AID 602368). In kind it is functional.
Assay [5] addresses 72 kDa type IV collagenase (Homo sapiens, UniProt P08253). As to the kind of experiment: Dose Response validation of uHTS RPN11 inhibitor hits using a MMP-2 Fluorescence assay. In kind it is functional.
The next assay deals with Prothrombin (Bos taurus, UniProt P00735). The experiment in a line: thrombin inhibition, dose response, biochemical, fluorescence polarization, uHTS hits (AID 602369). Format: functional.
For assay [6], the target named is T3, Tyrosine-protein phosphatase non-receptor type 7 (Homo sapiens, UniProt P35236).
T3 sequence (P35236 whole entry): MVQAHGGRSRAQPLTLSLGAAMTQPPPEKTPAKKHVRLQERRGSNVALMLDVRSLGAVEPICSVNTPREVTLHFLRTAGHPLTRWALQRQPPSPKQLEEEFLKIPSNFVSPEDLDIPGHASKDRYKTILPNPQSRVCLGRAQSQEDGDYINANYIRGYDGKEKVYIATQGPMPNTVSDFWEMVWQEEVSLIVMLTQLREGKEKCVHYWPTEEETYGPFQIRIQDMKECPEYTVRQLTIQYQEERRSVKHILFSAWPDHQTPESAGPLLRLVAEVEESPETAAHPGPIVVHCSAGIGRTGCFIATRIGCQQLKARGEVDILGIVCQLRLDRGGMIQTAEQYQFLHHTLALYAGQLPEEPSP
The experiment in a line: HePTP (PTPN7) phosphatase inhibitor potency, SAR follow-up, biochemical, set 2 (AID 449736). Format: functional.

Assay [7] has as its target T4, Kappa-type opioid receptor (Homo sapiens, UniProt P41145). The experiment in a line: SAR analysis of Antagonists of the Kappa Opioid Receptor (KOR) using an Image-Based Assay - Set 2. [Related pubchem assays (depositor defined):AID1777, AID1785, AID1786, AID1966, AID2133, AID2136, AID2284, AID2285, AID2348]. Format: functional.
Assay [8] has as its target T4, Kappa-type opioid receptor. The experiment in a line: SAR analysis of small molecule agonists of the kappa opioid receptor via a luminescent beta-arrestin assay - Set 2. [Related pubchem assays (depositor defined):AID1777, AID1785, AID1786, AID1966, AID2133, AID2136, AID2284, AID449737]. Format: functional.
The target of assay [9] is Delta-type opioid receptor (Homo sapiens, UniProt P41143). The experiment in a line: SAR Analysis of Antagonists of the DOR Receptor using an Image-Based Assay - Set 2. [Related pubchem assays (depositor defined):AID1777, AID1785, AID1786, AID1966, AID2133, AID2136, AID2284, AID2285, AID2357]. Format: functional.
In assay [10] the target is T5, Voltage-gated N-type calcium channel alpha-1B subunit/Amyloid beta A4 precursor protein-binding family A member 1 (Homo sapiens, UniProt Q00975+Q02410). Format: protein assay.
Assay [11] concerns the target T6, Mannose-6-phosphate isomerase (Homo sapiens, UniProt P34949).
T6 sequence (P34949 whole entry): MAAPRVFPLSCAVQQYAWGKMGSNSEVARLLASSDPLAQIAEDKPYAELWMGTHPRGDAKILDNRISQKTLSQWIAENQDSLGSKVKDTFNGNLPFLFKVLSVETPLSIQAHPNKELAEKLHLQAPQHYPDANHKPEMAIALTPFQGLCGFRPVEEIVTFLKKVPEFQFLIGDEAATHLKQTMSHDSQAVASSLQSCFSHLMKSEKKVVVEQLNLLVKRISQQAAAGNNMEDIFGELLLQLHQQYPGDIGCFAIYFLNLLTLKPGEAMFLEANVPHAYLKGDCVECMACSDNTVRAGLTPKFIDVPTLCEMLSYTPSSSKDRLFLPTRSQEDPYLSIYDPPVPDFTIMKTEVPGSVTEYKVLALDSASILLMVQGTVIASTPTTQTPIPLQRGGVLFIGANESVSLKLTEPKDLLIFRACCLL
As to the kind of experiment: inhibitors of human PMI, primary screen, biochemical, fluorescence intensity, coupled assay (AID 1209).

Assay [12] has as its target T5, Voltage-gated N-type calcium channel alpha-1B subunit/Amyloid beta A4 precursor protein-binding family A member 1. Format: protein assay. This is another data set of the same source.
Assay [13] can be described thus: growth suppression of PTEN-null colon cells, dose response, cell-based, HCT116 PTEN knockout (AID 1047).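 Note: HCT116 colon tumor cells with PTEN knocked out; cells exposed to compound for 60 hours before readout; potency for loss of cell viability measured by luminescence.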 In kind it is functional.
A short description of assay [14]: growth suppression of beta-catenin-knockout colon cells, dose response, cell-based, HCT116, human colon tumor (AID 1045).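 Note: HCT116 colon tumor cells with beta catenin knocked out; cells exposed to compound for 60 hours.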 Format: functional.
In assay [15] the target is Glucose-6-phosphate 1-dehydrogenase (Homo sapiens, UniProt P11413). As to the kind of experiment: human G6PD enzyme inhibitors, dose response, selectivity assay for P. falciparum G6PD inhibitor project, biochemical, fluorescence (AID 504792). In kind it is functional.
The next assay has as its target Beta-galactosidase (Escherichia coli, UniProt Q8VNN2). The experiment in a line: beta-galactosidase enzyme inhibitors and activators, dose response, artefact control for CCR6 antagonist project, biochemical, E. coli enzyme, set 3 (AID 504712). Format: functional.
Assay [16] can be described thus: SV40 cytopathic effect inhibition and cytotoxicity, confirmation, SV40 T antigen inhibitor project, BSC cells (AID 2615). In kind it is functional, cell-based. (In general: Cytopathic effects are the visible damage that an infection or toxin causes in cultured cells.)
Assay [17] is described as follows: Fluorescence-based cell-based high throughput dose response assay for inhibitors of the interaction of nucleotide-binding oligomerization domain containing 2 (NOD2) and the receptor-interacting serine-threonine kinase 2 (RIPK2). Format: functional. The settings on record: Homo sapiens.
In another assay the target is T7, Coagulation factor XII (Homo sapiens, UniProt P00748).
T7 sequence (P00748 whole entry): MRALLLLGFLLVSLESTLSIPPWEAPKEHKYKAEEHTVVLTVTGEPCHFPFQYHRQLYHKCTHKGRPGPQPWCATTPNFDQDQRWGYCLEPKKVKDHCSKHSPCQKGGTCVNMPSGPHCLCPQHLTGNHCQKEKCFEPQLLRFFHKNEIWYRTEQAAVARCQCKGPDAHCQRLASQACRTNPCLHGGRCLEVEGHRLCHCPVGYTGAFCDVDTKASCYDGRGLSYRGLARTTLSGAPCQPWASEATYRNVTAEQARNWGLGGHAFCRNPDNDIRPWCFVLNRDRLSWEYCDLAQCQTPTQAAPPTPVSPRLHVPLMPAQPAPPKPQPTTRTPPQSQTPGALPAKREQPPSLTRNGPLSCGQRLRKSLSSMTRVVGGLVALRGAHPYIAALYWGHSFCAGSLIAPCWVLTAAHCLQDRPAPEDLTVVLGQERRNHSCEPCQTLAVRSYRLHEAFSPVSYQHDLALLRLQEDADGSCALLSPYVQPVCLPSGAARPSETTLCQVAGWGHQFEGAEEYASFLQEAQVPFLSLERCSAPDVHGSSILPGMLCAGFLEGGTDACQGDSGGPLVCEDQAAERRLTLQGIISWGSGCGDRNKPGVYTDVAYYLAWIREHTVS
The experiment in a line: FXIIa inhibitor potency, concentration-response, biochemical (AID 716). In kind it is functional.

Each structure is given as a SMILES string. The source made the active and inactive calls. Some results are limits rather than exact numbers.

T5 sequence (Q00975 whole entry): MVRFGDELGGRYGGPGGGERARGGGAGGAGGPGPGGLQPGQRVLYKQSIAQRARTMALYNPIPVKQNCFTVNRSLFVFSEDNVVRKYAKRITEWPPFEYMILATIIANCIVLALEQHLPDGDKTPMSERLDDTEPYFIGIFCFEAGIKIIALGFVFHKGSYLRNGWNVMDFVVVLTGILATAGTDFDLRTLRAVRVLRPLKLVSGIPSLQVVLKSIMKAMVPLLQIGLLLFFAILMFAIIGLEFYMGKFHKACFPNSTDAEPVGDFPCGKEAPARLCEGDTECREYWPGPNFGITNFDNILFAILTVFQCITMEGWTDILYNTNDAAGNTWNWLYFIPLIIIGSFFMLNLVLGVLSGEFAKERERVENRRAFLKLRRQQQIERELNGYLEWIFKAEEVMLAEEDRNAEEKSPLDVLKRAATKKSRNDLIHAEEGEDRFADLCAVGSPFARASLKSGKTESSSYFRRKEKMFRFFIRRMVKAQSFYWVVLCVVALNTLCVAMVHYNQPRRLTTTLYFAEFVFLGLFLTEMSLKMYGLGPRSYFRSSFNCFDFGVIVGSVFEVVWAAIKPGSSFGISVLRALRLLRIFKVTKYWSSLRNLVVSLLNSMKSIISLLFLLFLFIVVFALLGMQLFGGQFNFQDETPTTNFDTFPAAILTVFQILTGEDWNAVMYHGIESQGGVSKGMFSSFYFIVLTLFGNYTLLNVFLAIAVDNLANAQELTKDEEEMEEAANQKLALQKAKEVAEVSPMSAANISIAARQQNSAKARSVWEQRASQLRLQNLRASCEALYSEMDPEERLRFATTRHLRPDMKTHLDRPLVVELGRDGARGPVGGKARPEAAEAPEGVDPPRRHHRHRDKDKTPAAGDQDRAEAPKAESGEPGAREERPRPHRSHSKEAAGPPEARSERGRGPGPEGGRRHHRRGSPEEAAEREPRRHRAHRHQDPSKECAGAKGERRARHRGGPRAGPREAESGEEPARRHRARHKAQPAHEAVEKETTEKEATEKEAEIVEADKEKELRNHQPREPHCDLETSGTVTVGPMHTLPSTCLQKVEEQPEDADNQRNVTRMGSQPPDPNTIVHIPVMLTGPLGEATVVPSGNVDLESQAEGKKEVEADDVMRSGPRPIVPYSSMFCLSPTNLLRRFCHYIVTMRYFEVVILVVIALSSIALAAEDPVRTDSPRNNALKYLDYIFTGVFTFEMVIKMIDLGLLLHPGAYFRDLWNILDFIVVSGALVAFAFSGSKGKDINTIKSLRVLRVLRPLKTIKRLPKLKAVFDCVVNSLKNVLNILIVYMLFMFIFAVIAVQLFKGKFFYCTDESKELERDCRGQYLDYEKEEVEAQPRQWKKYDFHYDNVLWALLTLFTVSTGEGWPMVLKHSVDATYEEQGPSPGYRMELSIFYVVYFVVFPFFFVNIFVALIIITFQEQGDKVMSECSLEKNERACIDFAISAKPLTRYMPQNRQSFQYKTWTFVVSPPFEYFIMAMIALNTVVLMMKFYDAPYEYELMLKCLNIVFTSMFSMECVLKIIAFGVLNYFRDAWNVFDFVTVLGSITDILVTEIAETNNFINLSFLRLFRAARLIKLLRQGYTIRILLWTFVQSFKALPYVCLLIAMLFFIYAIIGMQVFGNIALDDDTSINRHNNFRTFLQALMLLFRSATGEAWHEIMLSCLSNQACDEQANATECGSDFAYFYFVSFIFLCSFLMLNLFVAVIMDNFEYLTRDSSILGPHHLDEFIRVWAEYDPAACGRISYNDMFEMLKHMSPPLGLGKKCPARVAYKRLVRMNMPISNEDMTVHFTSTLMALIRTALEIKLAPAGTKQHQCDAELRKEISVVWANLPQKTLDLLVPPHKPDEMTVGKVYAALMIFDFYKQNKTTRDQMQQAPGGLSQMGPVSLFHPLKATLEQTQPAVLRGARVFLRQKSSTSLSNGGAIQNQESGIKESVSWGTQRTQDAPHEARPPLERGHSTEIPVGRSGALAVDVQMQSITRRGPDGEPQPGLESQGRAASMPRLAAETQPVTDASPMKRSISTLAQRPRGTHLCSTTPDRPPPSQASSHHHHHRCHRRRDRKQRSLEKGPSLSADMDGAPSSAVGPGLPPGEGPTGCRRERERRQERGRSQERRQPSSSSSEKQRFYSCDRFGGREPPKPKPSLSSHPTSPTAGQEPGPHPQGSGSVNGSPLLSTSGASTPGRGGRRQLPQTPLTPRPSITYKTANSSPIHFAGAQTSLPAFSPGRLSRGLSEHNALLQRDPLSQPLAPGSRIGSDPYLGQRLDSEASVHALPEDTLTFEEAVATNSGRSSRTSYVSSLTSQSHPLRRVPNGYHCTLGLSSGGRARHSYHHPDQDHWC
T5 sequence (Q02410 whole entry): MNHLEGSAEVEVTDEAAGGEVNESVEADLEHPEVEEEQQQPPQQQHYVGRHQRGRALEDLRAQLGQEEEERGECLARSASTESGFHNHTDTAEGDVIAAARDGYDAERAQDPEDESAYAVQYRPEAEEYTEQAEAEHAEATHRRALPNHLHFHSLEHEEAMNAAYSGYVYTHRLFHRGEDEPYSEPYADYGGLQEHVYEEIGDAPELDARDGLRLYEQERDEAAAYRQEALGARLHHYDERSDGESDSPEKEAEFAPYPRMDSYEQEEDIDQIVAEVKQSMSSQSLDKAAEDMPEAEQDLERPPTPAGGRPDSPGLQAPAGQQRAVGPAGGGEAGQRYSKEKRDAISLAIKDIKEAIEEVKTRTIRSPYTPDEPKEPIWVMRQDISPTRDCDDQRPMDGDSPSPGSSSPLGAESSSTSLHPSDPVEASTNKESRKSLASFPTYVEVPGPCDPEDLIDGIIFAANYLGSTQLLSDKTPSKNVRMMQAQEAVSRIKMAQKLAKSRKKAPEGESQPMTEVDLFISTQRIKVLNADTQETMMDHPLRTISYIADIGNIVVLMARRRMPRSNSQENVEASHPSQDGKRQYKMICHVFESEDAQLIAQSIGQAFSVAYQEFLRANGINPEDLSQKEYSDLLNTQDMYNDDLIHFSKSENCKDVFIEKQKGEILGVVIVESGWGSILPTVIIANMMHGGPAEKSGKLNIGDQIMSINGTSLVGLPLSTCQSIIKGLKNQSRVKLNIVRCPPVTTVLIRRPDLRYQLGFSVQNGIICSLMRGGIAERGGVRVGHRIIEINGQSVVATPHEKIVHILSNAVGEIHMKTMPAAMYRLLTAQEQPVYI
T4 sequence (P41145 whole entry): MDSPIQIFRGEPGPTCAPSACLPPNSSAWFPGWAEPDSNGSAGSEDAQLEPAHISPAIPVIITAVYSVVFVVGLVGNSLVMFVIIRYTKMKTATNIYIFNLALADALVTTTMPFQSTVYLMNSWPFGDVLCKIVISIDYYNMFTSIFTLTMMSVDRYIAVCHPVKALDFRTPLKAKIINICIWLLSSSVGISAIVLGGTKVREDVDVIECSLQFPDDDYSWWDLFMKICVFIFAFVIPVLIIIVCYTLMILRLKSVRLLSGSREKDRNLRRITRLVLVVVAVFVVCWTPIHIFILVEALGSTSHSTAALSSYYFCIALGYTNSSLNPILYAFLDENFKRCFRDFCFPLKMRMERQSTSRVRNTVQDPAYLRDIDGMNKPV
Sequence of Large T antigen (P03070 whole entry): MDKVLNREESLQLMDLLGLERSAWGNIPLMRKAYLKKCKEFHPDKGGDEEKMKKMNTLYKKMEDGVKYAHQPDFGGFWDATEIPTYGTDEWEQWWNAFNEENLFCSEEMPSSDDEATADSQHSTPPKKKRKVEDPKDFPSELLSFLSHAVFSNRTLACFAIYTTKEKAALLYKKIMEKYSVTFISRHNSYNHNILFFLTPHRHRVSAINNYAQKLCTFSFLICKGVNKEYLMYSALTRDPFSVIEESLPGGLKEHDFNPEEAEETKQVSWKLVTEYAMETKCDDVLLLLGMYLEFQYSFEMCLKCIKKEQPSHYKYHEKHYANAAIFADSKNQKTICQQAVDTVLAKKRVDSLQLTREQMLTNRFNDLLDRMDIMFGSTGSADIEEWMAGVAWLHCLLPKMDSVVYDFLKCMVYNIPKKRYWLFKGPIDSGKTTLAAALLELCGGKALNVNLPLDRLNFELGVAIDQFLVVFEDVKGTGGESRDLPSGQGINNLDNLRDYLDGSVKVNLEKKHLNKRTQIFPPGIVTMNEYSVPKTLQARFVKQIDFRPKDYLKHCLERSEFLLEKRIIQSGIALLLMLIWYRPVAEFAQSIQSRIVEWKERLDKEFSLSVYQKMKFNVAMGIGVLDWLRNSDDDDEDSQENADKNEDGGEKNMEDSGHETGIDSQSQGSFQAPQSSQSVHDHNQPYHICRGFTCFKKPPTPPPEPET
Sequence of Glucose-6-phosphate 1-dehydrogenase (P11413 whole entry): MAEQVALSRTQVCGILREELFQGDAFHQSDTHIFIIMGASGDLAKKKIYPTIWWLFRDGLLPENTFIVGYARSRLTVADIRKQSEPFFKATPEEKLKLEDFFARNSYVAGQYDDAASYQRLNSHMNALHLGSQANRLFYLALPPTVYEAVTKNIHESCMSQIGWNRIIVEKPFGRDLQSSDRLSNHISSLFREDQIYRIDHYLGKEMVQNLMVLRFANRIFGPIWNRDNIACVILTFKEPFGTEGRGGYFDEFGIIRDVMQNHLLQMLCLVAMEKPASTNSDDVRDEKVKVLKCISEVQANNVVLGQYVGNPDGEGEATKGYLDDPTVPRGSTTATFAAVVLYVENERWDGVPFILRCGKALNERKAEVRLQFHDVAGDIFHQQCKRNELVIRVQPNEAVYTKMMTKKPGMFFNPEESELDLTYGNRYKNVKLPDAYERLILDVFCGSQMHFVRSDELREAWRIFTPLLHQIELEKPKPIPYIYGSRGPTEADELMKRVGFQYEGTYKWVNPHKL
Sequence of 26S proteasome non-ATPase regulatory subunit 14 (O00487 whole entry): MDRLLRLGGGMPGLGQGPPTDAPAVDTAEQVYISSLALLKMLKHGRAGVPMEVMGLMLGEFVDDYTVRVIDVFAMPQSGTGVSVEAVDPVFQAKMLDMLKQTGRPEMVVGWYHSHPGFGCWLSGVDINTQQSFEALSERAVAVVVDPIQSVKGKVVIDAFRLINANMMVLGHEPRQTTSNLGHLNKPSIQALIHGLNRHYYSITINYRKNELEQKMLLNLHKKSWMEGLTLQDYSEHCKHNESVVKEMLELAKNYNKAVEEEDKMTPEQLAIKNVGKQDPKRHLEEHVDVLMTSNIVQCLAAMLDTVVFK

`CC(C(=O)Nc1ccc(C(=O)O)c(O)c1)N1C(=O)/C(=C\c2ccco2)SC1=S` (configuration not stated): the IC50 at Large T antigen is 47.9 µM (active); on Cysteine protease ATG4B, 11 µM (active); at Phospholipase A2, 26.6 µM (inactive); at Genome polyprotein it was 79.4 µM (active); in [4] it was 14.6 µM (active); in assay [5], 968 nM (active). The IC50 at Prothrombin was 98.5 µM (active). The AC50 at ORF 73 is 66.3 µM (active). In addition, the EC50 in [1] is 50.8 µM (active); in assay [2], 51.2 µM (active); in [3] it was 62.2 µM (active). Also, the CC50 in the assay with Vero is > 40 µM (active).

On to `Cc1ccc(NC(=O)c2sc(=S)n(-c3cc(C)ccc3F)c2N)cc1`, for which the IC50 in assay [6] is 87.1 µM (active).

Regarding `CC[C@@](C)(C(=O)Nc1ccc(Br)cc1)N(Cc1ccco1)C(=O)c1ccccn1`, the IC50 in [7] and in assay [9] was > 32 µM (inactive) in each case. Also, the EC50 in assay [8] is 52.3 nM (active).

On to `ClC(Cl)(c1nnnn1-c1ccccc1)c1nnnn1-c1ccccc1`, for which the IC50 in [10] is 4.38 µM (active); on Large T antigen, 5.47 µM (active); in assay [11] it was > 50 µM (not active); in [12], 5.93 µM (active); in assay [15] it was > 80 µM (inactive); at Beta-galactosidase it was > 66.6 µM (inactive). For the same compound, the IC50 in assay [16] was 10 µM (active); in [17] it was 5.41 µM (active). The values for the EC50 in [13] and in [14] were 10.8 µM (active) and 9.79 µM (active), respectively.

Turning to `COc1ccc(NC(=O)CSc2nnc(CNC(=O)COc3ccc(Cl)cc3)o2)c(OC)c1`, the IC50 on Coagulation factor XII is > 50 µM (inactive).

As a reminder, the IC50 is the concentration at which inhibition is half-maximal. The AC50 is the midpoint of the concentration-response curve, whichever way the signal moves. Broadly, the EC50 is the concentration that produces a half-maximal response. The term CC50 denotes the concentration at which the toxic effect on the cells reaches its halfway point.
